Measured values published in patent US11135176B1 (Florida A&M University, priority 2016, dated 2021).

Key:
[1] = Solubility of IBU in lipids (visual); format: physicochemical; parameters: key to Solubility of IBU in Geleol mono and diglyceride NF / Solubility of IBU in Glyceryl monostearate / Solubility of IBU in Stearic acid / Solubility of IBU in COMPRITOL ® 888ATO / Solubility of IBU in PRECIROL ® ATO5: +: Clear or transparent mixture implies the drug is soluble in lipid; settings: for Solubility of IBU in COMPRITOL ® 888ATO / Solubility of IBU in Geleol mono and diglyceride NF / Solubility of IBU in Glyceryl monostearate / Solubility of IBU in PRECIROL ® ATO5 / Solubility of IBU in Stearic acid: 90° C.
Experimental: The selection of lipid was done by evaluating the solubility of IBU in different lipids such as Compritol® 888ATO (glyceryl behenate), Precirol® ATOS (glyceryl palmitosterate), geleol mono and diglyceride NF, glyceryl monostearate and stearic acid. Briefly, 10 mg of IBU was weighed and added into Eppendorf tube containing 100 mg of lipid. The mixture was then heated for 10 minutes in a water bath at 90° C. to facilitate solubilization. […] Finally, total of 40 mg of drug was added in 100 mg of lipid and checked for the precipitation.

[2] = Drug solubility in 4% of surfactant, analyzed by HPLC; format: physicochemical
[3] = 10 mg of IBU/100 mg of solid lipid
[4] = 20 mg of IBU/100 mg of solid lipid
[5] = 30 mg of IBU/100 mg of solid lipid
[6] = 40 mg of IBU/100 mg of solid lipid

Solubility of IBU in COMPRITOL ® 888ATO [1, 3]: + | Solubility of IBU in Geleol mono and diglyceride NF [1, 3]: + | Solubility of IBU in Glyceryl monostearate [1, 3]: + | Solubility of IBU in PRECIROL ® ATO5 [1, 3]: + | Solubility of IBU in Stearic acid [1, 3]: + | Solubility of IBU in COMPRITOL ® 888ATO [1, 4]: + | Solubility of IBU in Geleol mono and diglyceride NF [1, 4]: + | Solubility of IBU in Glyceryl monostearate [1, 4]: + | Solubility of IBU in PRECIROL ® ATO5 [1, 4]: + | Solubility of IBU in Stearic acid [1, 4]: + | Solubility of IBU in COMPRITOL ® 888ATO [1, 5]: + | Solubility of IBU in Geleol mono and diglyceride NF [1, 5]: + | Solubility of IBU in Glyceryl monostearate [1, 5]: + | Solubility of IBU in PRECIROL ® ATO5 [1, 5]: + | Solubility of IBU in Stearic acid [1, 5]: + | Solubility of IBU in COMPRITOL ® 888ATO [1, 6]: + | Solubility of IBU in Geleol mono and diglyceride NF [1, 6]: + | Solubility of IBU in Glyceryl monostearate [1, 6]: + | Solubility of IBU in PRECIROL ® ATO5 [1, 6]: + | Solubility of IBU in Stearic acid [1, 6]: + | solubility of IBU in the lipid ([1]; 40 of IBU, heated at 90 C, Compritol 888 ATO, Precirol ATO 5, geleol mono and diglyceride NF, glyceryl monostearate and stearic acid): completely soluble | drug soluble in the surfactant [2]: less than 5%
Compound: CC(C)Cc1ccc(C(C)C(=O)O)cc1 (stereo not shown) [IBU, ibuprofen]
